In US8119643B2, “Benzoimidazolyl-pyrazine compounds for inflammation and immune-related uses” (Synta Pharmaceuticals Corp., priority 2006, dated 2012):

The compounds below were run on IL-2 production (assay: Inhibition of IL-2 production in PHA-activated Jurkat cells (ELISA)). Conditions: Homo sapiens, PHA 2.5 μg/mL, 20 hours, IL-2 ELISA.
Type: cell-based
Description: Jurkat cells were placed in a 96 well plate (0.5 million cells per well in 1% FBS medium) then a test compound of this invention was added at different concentrations. After 10 minutes, the cells were activated with PHA (final concentration 2.5 μg/mL) and incubated for 20 hours at 37° C. under CO2. The final volume was 200 μL. Following incubation, the cells were centrifuged and the supernatants were collected and stored at −70° C. prior to assaying for IL-2 production. A commercial ELISA kit (IL-2 Eli-pair, Diaclone Research, Besancon, France) was used to detect production of IL-2, from which dose response curves were obtained. The IC50 value was calculated as the concentration at which 50% of maximum IL-2 production after stimulation was inhibited versus a non-stimulation control.

SMILES | IC50
COc1ccc2c(c1)nc(C(F)(F)F)n2-c1cnc(NC(=O)c2cc(Cl)ccc2OC)cn1 [Compound 152, 5-Chloro-2-methoxy-N-[5-(5-methoxy-2-trifluoromethyl-benzoimidazol-1-yl)-pyrazin-2-yl]-benzamide] | > 1000 nM
COc1ccc2c(c1)nc(C(F)(F)F)n2-c1cnc(NC(=O)c2ccc([N+](=O)[O-])cc2)cn1 [Compound 97, N-[5-(5-Methoxy-2-trifluoromethyl-benzoimidazol-1-yl)-pyrazin-2-yl]-4-nitro-benzamide] | 307 nM
COc1ccc2c(c1)nc(C(F)(F)F)n2-c1cnc(NC(=O)c2ccc(Cl)cc2)cn1 [Compound 91, 4-Chloro-N-[5-(5-methoxy-2-trifluoromethyl-benzoimidazol-1-yl)-pyrazin-2-yl]-benzamide] | 384 nM
COc1ccc2c(c1)nc(C(F)(F)F)n2-c1cnc(NC(=O)c2ccc(C)cc2)cn1 [Compound 118, N-[5-(5-Methoxy-2-trifluoromethyl-benzoimidazol-1-yl)-pyrazin-2-yl]-4-methyl-benzamide] | 40 nM
COc1ccc2c(c1)nc(C(F)(F)F)n2-c1cnc(NC(=O)c2ccc([N+](=O)[O-])c(OC)c2)cn1 [Compound 147, 3-Methoxy-N-[5-(5-methoxy-2-trifluoromethyl-benzoimidazol-1-yl)-pyrazin-2-yl]-4-nitro-benzamide] | > 1000 nM
COc1ccc2c(c1)nc(C(F)(F)F)n2-c1cnc(NCc2ccccc2F)cn1 [Compound 41, (2-Fluoro-benzyl)-[5-(5-methoxy-2-trifluoromethyl-benzoimidazol-1-yl)-pyrazin-2-yl]-amine] | 396 nM
CCCCCc1ccc(C(=O)Nc2cnc(-n3c(C(F)(F)F)nc4cc(OC)ccc43)cn2)cc1 [Compound 131, N-[5-(5-Methoxy-2-trifluoromethyl-benzoimidazol-1-yl)-pyrazin-2-yl]-4-pentyl-benzamide] | 331 nM
COc1ccc2c(c1)nc(C(F)(F)F)n2-c1cnc(NC(=O)c2cccc(Cl)c2)cn1 [Compound 96, 3-Chloro-N-[5-(5-methoxy-2-trifluoromethyl-benzoimidazol-1-yl)-pyrazin-2-yl]-benzamide] | 91 nM
COc1ccc2c(c1)nc(C(F)(F)F)n2-c1cnc(NC(=O)c2ccc(Cl)cc2OC)cn1 [Compound 134, 4-Chloro-2-methoxy-N-[5-(5-methoxy-2-trifluoromethyl-benzoimidazol-1-yl)-pyrazin-2-yl]-benzamide] | > 1000 nM
COc1ccc2c(c1)nc(C(F)(F)F)n2-c1cnc(NC(=O)c2ccc(F)c(F)c2F)cn1 [Compound 149, 2,3,4-Trifluoro-N-[5-(5-methoxy-2-trifluoromethyl-benzoimidazol-1-yl)-pyrazin-2-yl]-benzamide] | 88 nM
COc1ccc2c(c1)nc(C(F)(F)F)n2-c1cnc(NC(=O)c2cccc(C#N)c2)cn1 [Compound 101, 3-Cyano-N-[5-(5-methoxy-2-trifluoromethyl-benzoimidazol-1-yl)-pyrazin-2-yl]-benzamide] | 96 nM
COc1ccc2c(c1)nc(C(F)(F)F)n2-c1cnc(NC(=O)c2ccc(Cl)c([N+](=O)[O-])c2)cn1 [Compound 139, 4-Chloro-N-[5-(5-methoxy-2-trifluoromethyl-benzoimidazol-1-yl)-pyrazin-2-yl]-3-nitro-benzamide] | > 1000 nM
COc1ccc2c(c1)nc(C(F)(F)F)n2-c1cnc(NC(=O)c2cc(F)c(F)cc2F)cn1 [Compound 143, 2,4,5-Trifluoro-N-[5-(5-methoxy-2-trifluoromethyl-benzoimidazol-1-yl)-pyrazin-2-yl]-benzamide] | 178 nM
COc1ccc2c(c1)nc(C(F)(F)F)n2-c1cnc(NC(=O)c2ccc(F)cc2Br)cn1 [Compound 138, 2-Bromo-4-fluoro-N-[5-(5-methoxy-2-trifluoromethyl-benzoimidazol-1-yl)-pyrazin-2-yl]-benzamide] | 83 nM
COc1ccc2c(c1)nc(C(F)(F)F)n2-c1cnc(NC(=O)c2cccc(Cl)c2Cl)cn1 [Compound 113, 2,3-Dichloro-N-[5-(5-methoxy-2-trifluoromethyl-benzoimidazol-1-yl)-pyrazin-2-yl]-benzamide] | 22 nM
